Data reported in article PMC3884022 (Journal of Hematology & Oncology, 2014).

Legend:
[1] = cited from earlier work
[2] = Docetaxel PK samples (end of infusion), arm 2; type: in vivo, human; details: arm 2, IV docetaxel with MK-2206
Method: For the Q3W schedule, samples were taken in cycle 1 on days 1 to 3 as per the QOD schedule, then on days 5, 7, 15, and in cycle 2 on day 1. Blood samples were collected predose and just before the end of the infusion for carboplatin, paclitaxel, and docetaxel for archival and possible PK analysis. Another sample was taken 30 minutes into the infusion of paclitaxel. These samples were archived for possible future analysis to investigate if any unexpected toxicities may have been as a result of a PK interaction.

mean end-of-infusion concentration [2]: 3.01 µg/mL
Compound: CC(=O)O[C@@]12CO[C@@H]1C[C@H](O)[C@@]1(C)C(=O)[C@H](O)C3=C(C)[C@@H](OC(=O)[C@H](O)[C@@H](NC(=O)OC(C)(C)C)c4ccccc4)C[C@@](O)([C@@H](OC(=O)c4ccccc4)[C@H]21)C3(C)C [docetaxel]
mean end-of-infusion concentration, range of mean values in the literature [1]: 1.68 to 4.06 µg/mL
